Key:
[1] = target: T1, Y113F PGRMC1 (progesterone receptor membrane component 1) (Homo sapiens, UniProt O00264, Y113F); test: spectrophotometric hemin titration (A394), Hill fit; format: binding
T1 construct: recombinant truncated human PGRMC1 (aa 43–195), His tag removed by thrombin

[2] = target: T2, PGRMC1 (progesterone receptor membrane component 1) (Homo sapiens, UniProt O00264); test: as above; format: binding
T2 construct: recombinant truncated human PGRMC1 (aa 43–195), His tag removed by thrombin
T2 sequence (O00264 43-195): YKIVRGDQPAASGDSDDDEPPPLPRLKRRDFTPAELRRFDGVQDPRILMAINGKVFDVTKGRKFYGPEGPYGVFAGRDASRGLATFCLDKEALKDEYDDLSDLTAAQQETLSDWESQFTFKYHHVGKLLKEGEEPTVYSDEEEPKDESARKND

T1 sequence (O00264 43-195 Y113F): as the sequence (O00264 43-195) above, with Y71F counted along it

C=CC1=C(C)C2=Cc3c(C=C)c(C)c4[n]3[Fe]([Cl])[n]3c(c(C)c(CCC(=O)O)c3=CC3=NC(=C4)C(C)=C3CCC(=O)O)=CC1=N2 [hemin]
Kd [1]: 4.7 ± 0.42 µM | Kd [2]: 4.9 ± 0.33 µM

Reference: publication PMC8591507, “Progesterone receptor membrane component 1 (PGRMC1) binds and stabilizes cytochromes P450 through a heme-independent mechanism” (The Journal of Biological Chemistry, 2021)
